This passage reports EC50, Emax and IC50 results from US20250236614A1, “BICYCLIC TETRAHYDROAZEPINE DERIVATIVES” (Hoffmann-La Roche Inc., priority 2022, published 2025).

SMILES strings stand for the structures.

T1 sequence (Q13574 whole entry): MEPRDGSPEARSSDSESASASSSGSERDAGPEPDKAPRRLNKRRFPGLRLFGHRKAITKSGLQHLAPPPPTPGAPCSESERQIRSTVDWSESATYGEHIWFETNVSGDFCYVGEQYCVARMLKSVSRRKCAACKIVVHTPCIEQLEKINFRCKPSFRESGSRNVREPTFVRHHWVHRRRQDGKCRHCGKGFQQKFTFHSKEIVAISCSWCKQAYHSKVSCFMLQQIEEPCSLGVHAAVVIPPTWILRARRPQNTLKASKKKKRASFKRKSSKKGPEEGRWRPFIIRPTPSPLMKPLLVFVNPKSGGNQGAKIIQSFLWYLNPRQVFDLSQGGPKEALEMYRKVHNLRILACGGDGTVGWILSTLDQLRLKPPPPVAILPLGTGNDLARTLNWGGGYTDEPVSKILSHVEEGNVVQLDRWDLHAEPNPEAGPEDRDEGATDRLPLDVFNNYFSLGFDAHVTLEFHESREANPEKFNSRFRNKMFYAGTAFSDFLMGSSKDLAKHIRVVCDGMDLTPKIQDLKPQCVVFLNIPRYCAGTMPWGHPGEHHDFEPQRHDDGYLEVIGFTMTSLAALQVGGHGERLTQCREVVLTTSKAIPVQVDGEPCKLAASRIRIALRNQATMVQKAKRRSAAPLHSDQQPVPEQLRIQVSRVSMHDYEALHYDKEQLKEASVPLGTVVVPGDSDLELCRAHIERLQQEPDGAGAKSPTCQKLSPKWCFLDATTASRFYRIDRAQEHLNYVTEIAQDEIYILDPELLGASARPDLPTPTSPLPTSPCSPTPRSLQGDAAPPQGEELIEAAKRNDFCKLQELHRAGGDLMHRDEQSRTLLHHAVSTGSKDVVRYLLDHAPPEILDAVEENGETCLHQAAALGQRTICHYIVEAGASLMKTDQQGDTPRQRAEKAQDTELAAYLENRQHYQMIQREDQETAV

In one assay the test system is primary human T-cells. The assay can be described thus: IL2 secretion measurements in CD3-stimulated T-cells. In kind it is cell-based. The note with it: Homo sapiens, T-cell; isomer A; CD3 antibody-stimulated T-cells, IL2 in supernatant after 24 hours; read-out: Tcell IL2 CD3 EC50. As for the experimental part: As readouts for T-cell activation, IL2 secretion after 24 hours and proliferation after 5 days was measured. Increases in IL2 secretion and proliferation upon compound treatment were assessed as the % of the maximum of reference compound A1. WO 2016/139181 discloses reference compound A1 as example 70. As a counter screen and to make sure that no unwanted TCR-independent activation was triggered, PBS conditions were run for all compounds.
Expanded primary human T-cells were thawed and cultured in RPMI 1640 (Gibco, #61870-010)+5% human serum (HS, Sigma, #H3667)+1 mM Sodium Pyruvate (Gibco, #11360-039)+50 μM 2-mercaptoethanol (Gibco, #31350-010) and lx Pen-Strep (Life Technologies, #15140122) medium at density of 2 Mio/ml for 3 hours in 5% CO2, 37° C. and 95% humidity. For coating of plates, […] or PBS++ with CD3 antibody (concentration depending on donor and determined by CD3 titrations) was added 100 μl/well to Poly-D Lysine coated 96-well plates. Plates were sealed and incubated at room temperature for 3 hours on a table-top rocking platform. After incubation, plates were washed once with PBS−− and filled with 40 μl/well culture medium only. Compounds were then added (see next section) to medium only plates. After 3 hours of culturing the T-cells, cells were filtered through a cell strainer (Miltenyi Biotech, #130-041-407), counted again and concentration was adjusted to 1.25 Mio/ml.
Cells were then seeded 80 μl/well to the 40 μl/well including dispensed compounds according to plate layout. By adding cells, compounds were further diluted 1:3, and resulting in 100k cells/120 μl/well. After 24 hours 40 μl of supernatant was collected carefully from the top while not disturbing the cells and transferred into a round bottom 96 well plate. Collected and frozen supernatant was used for detection of IL2 using the IL-2 Human ProQuantum Immunoassay Kit (Invitrogen) or using the Human IL-2 ELISA Kit (Thermo Fisher).
Compounds were added in a 5 or 6 pt dose response with the Tecan D300e Digital Dispenser, all conditions 3 times more concentrated than the end-concentration, since cells are added afterwards (80 μl cells to 40 μl prepared medium with treatment). The DR was starting at 20 μM or 10 μM final top concentration and a dilution factor of 3.333. The positive control was the reference compound A1 that was added in a dose response as well, additionally to 3 wells of only 20 μM representing the positive stimulator control. All wells were normalized with DMSO to a final concentration of 0.6% (0.2% end-concentration).
The immunoassay is done following the manufacturer's manual (Invitrogen, #A35603).
Additional information: For the immunoassay, MicroAmp™ EnduraPlate™ Optical 384-Well plates are used. Frozen supernatant is thawed and centrifuged for 5 minutes at 1000×g, both steps at 4° C. After centrifugation, required sample amount is taken from the top, and in a separate LightCycler V-bottom plate (working plate) diluted with assay dilution buffer, dilution factor depending on the PBS or CD3 condition but at least 1:3. IL-2 standard and blanks are prepared in the same V-bottom plate, standard with a range of […] (extended version). After preparation, […] of sample dilutions or standard/blanks are transferred to the optical 384-well plate (assay plate) and the 10 μl reaction protocol is being followed. For measurement, the QuantStudio 12K Flex system is used. Raw data is extracted and IL-2 concentrations are calculated with the Thermo Fisher online app (apps.thermofisher.com/apps/proquantum).
ELISA is done following the manufacturer's manual (Thermo Fisher Scientific, #88-7025-88).
Additional information: For the ELISA Nunc MaxiSorp 96 well plates are used. Frozen supernatant is thawed and centrifuged for 5 minutes at 1000×g, both steps at 4° C. After that, required sample amount is taken from the top, and in a separate V-bottom plate diluted with ELISA diluent, dilution factor depending on the PBS or CD3 condition. […]
A word on the EC50: it is the concentration giving half of the maximal effect. On to `CC(C)(c1nnc(-c2cc3c(cc2F)C(F)(F)C[C@@H](N)C(=O)N3Cc2ccc(-n3cc(C(F)(F)F)cn3)cc2)o1)S(C)(=O)=O` (single isomer, unassigned) [Example 29], for which the EC50 was over 10 µM.
`CC(C)(C#N)c1nnc(-c2cc3c(cc2F)C(F)(F)C[C@@H](N)C(=O)N3Cc2ccc(-c3ncc(C(F)(F)F)cc3F)cc2)o1` (single isomer, unassigned) [Example 19]: the concentration for a half-maximal effect (EC50) was over 2.73 µM.
For the compound `COC(=O)N1CC2CC(c3nnc(-c4cc5c(cc4F)C(F)(F)CC(N)C(=O)N5Cc4ccc(-c5noc(C(F)(F)F)n5)cc4)o3)(C2)C1` (single isomer, unassigned) [Example 42], the EC50 came to 2.89 µM.
`N[C@@H]1CC(F)(F)c2cc(F)c(-c3nnc(N4CCC(F)(F)CC4)o3)cc2N(Cc2ccc(-c3noc(C(F)(F)F)n3)cc2)C1=O` (single isomer, unassigned) [Example 15]: the EC50 came to 1.29 µM.
As for `COC(=O)N1CC2CC(c3nnc(-c4cc5c(cc4F)C(F)(F)C[C@@H](N)C(=O)N5Cc4ccc(Cl)cc4)o3)(C2)C1` (single isomer, unassigned) [Example 36], the 50% effective concentration (EC50) turned out to be 0.856 µM.
For the compound `COc1ccc(-c2ccc(CN3C(=O)[C@H](N)CC(F)(F)c4cc(F)c(-c5nnc(C(C)(C)C#N)o5)cc43)cc2)cc1` (single isomer, unassigned) [Example 9], the half-maximal effective concentration (EC50) was 0.37 µM.

Still in this assay, the particulars now being: Homo sapiens, T-cell; isomer A; CD3 condition, 24 hours; 20 μM reference compound A1 = 100%, DMSO neutral control; read-out: Emax IL2 (% activation).
In general, Emax refers to the greatest response seen or fitted, relative to the assay's reference. Regarding `CC(C)(c1nnc(-c2cc3c(cc2F)C(F)(F)C[C@@H](N)C(=O)N3Cc2ccc(-n3cc(C(F)(F)F)cn3)cc2)o1)S(C)(=O)=O` (single isomer, unassigned) [Example 29], the Emax was 48%.
As for `CC(C)(C#N)c1nnc(-c2cc3c(cc2F)C(F)(F)C[C@@H](N)C(=O)N3Cc2ccc(-c3ncc(C(F)(F)F)cc3F)cc2)o1` (single isomer, unassigned) [Example 19], the maximum response (Emax) was 63%.
For `COC(=O)N1CC2CC(c3nnc(-c4cc5c(cc4F)C(F)(F)CC(N)C(=O)N5Cc4ccc(-c5noc(C(F)(F)F)n5)cc4)o3)(C2)C1` (single isomer, unassigned) [Example 42], the maximum response (Emax) turned out to be 129%.
In the case of `N[C@@H]1CC(F)(F)c2cc(F)c(-c3nnc(N4CCC(F)(F)CC4)o3)cc2N(Cc2ccc(-c3noc(C(F)(F)F)n3)cc2)C1=O` (single isomer, unassigned) [Example 15], the maximal effect (Emax) amounted to 152%.
With `COC(=O)N1CC2CC(c3nnc(-c4cc5c(cc4F)C(F)(F)C[C@@H](N)C(=O)N5Cc4ccc(Cl)cc4)o3)(C2)C1` (single isomer, unassigned) [Example 36], the maximal effect (Emax) is 53%.
Take `COc1ccc(-c2ccc(CN3C(=O)[C@H](N)CC(F)(F)c4cc(F)c(-c5nnc(C(C)(C)C#N)o5)cc43)cc2)cc1` (single isomer, unassigned) [Example 9]: the Emax came out at 133%.

A further assay addresses T1, hDGKzeta(1-928)-N-His (DGKZ) (Homo sapiens, UniProt Q13574).
T1 construct: hDGKzeta(1-928)-N-His; His (N)
The assay is described as follows: In vitro DGK inhibition assay (ADP-Glo, in house), DGK zeta. As to conditions: isomer A; 2 nM DGK ζ, 50 μM ATP, 125 μM DLG in liposomes, 1 hour reaction; read-out: DGKzeta ADP Glo assay IC50. It is filed as biochemical. As for the experimental part:
(§1) DGK α and ζ kinase use ATP to phosphorylate the substrate 1,2-dilauroyl-sn-glycerol (DLG, incorporated in the liposomes). ATP is converted to ADP as a result of this enzymatic reaction.
(§2) After the kinase reaction, an ATP-depletion reagent is added to terminate the kinase reaction and deplete any remaining ATP, leaving only ADP. Second, a detection reagent is added to simultaneously convert ADP to ATP and allow the newly synthesized ATP to be converted to light using a coupled luciferase/luciferin reaction.
(§3) Full length DGKA and Z were expressed in Sf21 insect cells by infecting the cells with the baculovirus stock at MOI of 2. Purification of both enzymes was performed as previously described by Takahashi et al., PeerJ, 2018 (Takahashi, D.; Sakane, F. Expression and purification of human diacylglycerolkinase alpha from baculovirus-infected insect cells for structural studies. PeerJ2018, 6, No. e5449).
(§4) A concentrated liposome solution was prepared in assay buffer without DTT and BSA: 2 mM of DLG in 21 mM of total liposome (2 mM DLG/8 mM PS/11 mM PC). The reaction mixtures contain the assay buffer with a final DLG concentration of 125 μM ATP concentrations of 25 μM (for DGKA assay) or 50 μM (for DGKZ assay). The reactions were started by addition of DGK α and ζ kinases at 4 nM and 2 nM final concentrations, respectively. After 1 hour reaction, the amount of ADP formed was detected with the ADP-Glo kinase assay (Promega) according to the manufacturer instructions. Compounds were added in 11I-points dose response, starting at 10 mM, 1:3 dilutions, with a final DMSO concentration of […]. The multidrop combi was used as a liquid handler and luminescence was read with 0.5 s by the envision reader (PE).
A general note: ADP-Glo turns the ADP formed in a reaction into a luminescent signal.
What is called IC50 is the concentration that inhibits the measured activity by half. Regarding `CC(C)(c1nnc(-c2cc3c(cc2F)C(F)(F)C[C@@H](N)C(=O)N3Cc2ccc(-n3cc(C(F)(F)F)cn3)cc2)o1)S(C)(=O)=O` (single isomer, unassigned) [Example 29], the 50% inhibitory concentration (IC50) turned out to be 13.9 µM.
Consider `CC(C)(C#N)c1nnc(-c2cc3c(cc2F)C(F)(F)C[C@@H](N)C(=O)N3Cc2ccc(-c3ncc(C(F)(F)F)cc3F)cc2)o1` (single isomer, unassigned) [Example 19], for which the half-inhibitory concentration (IC50) worked out at 7.24 µM.
`COC(=O)N1CC2CC(c3nnc(-c4cc5c(cc4F)C(F)(F)CC(N)C(=O)N5Cc4ccc(-c5noc(C(F)(F)F)n5)cc4)o3)(C2)C1` (single isomer, unassigned) [Example 42]: the IC50 came to 2.22 µM.
Same read-out and setting: the result for `N[C@@H]1CC(F)(F)c2cc(F)c(-c3nnc(N4CCC(F)(F)CC4)o3)cc2N(Cc2ccc(-c3noc(C(F)(F)F)n3)cc2)C1=O` (single isomer, unassigned) [Example 15] reads 1.81 µM; that for `COC(=O)N1CC2CC(c3nnc(-c4cc5c(cc4F)C(F)(F)C[C@@H](N)C(=O)N5Cc4ccc(Cl)cc4)o3)(C2)C1` (single isomer, unassigned) [Example 36], 5.92 µM; that for `COc1ccc(-c2ccc(CN3C(=O)[C@H](N)CC(F)(F)c4cc(F)c(-c5nnc(C(C)(C)C#N)o5)cc43)cc2)cc1` (single isomer, unassigned) [Example 9], 2.36 µM.

For a further assay, the target named is T2, hDGKalpha(1-735)-N-His (DGKA) (Homo sapiens, UniProt P23743).
T2 construct: hDGKalpha(1-735)-N-His; His (N)
T2 sequence (P23743 whole entry): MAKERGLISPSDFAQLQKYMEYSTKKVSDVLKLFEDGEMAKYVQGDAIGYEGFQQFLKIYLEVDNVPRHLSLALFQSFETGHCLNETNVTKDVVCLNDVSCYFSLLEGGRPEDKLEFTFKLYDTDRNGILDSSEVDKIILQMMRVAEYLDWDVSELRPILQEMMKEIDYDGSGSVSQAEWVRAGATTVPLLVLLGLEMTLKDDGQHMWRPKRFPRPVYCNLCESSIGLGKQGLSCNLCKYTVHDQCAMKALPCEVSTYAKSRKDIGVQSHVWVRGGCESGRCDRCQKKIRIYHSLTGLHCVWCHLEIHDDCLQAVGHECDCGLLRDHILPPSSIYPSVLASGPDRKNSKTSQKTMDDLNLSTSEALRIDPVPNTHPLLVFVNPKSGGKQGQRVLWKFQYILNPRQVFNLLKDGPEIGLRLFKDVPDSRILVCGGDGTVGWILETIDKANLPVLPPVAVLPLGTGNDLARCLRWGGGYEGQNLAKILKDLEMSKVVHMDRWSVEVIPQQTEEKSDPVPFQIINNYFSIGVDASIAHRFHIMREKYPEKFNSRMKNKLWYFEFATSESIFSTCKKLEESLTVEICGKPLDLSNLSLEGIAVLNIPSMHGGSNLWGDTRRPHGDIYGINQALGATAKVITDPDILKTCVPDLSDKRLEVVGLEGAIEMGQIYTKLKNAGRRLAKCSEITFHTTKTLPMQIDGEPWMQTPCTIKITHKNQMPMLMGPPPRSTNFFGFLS
The assay can be described thus: In vitro DGK inhibition assay (ADP-Glo, in house), DGK alpha. It is filed as biochemical. The note with it: isomer A; 4 nM DGK α, 25 μM ATP, 125 μM DLG in liposomes, 1 hour reaction; read-out: DGKalpha ADP Glo assay IC50. As for the experimental part:
as §1, §2, §3, §4
Turning to `CC(C)(c1nnc(-c2cc3c(cc2F)C(F)(F)C[C@@H](N)C(=O)N3Cc2ccc(-n3cc(C(F)(F)F)cn3)cc2)o1)S(C)(=O)=O` (single isomer, unassigned) [Example 29], the IC50 came out at 0.551 µM.
Regarding `CC(C)(C#N)c1nnc(-c2cc3c(cc2F)C(F)(F)C[C@@H](N)C(=O)N3Cc2ccc(-c3ncc(C(F)(F)F)cc3F)cc2)o1` (single isomer, unassigned) [Example 19], the IC50 stood at 41.6 µM.
As to `COC(=O)N1CC2CC(c3nnc(-c4cc5c(cc4F)C(F)(F)CC(N)C(=O)N5Cc4ccc(-c5noc(C(F)(F)F)n5)cc4)o3)(C2)C1` (single isomer, unassigned) [Example 42], the 50% inhibitory concentration (IC50) amounted to 4.32 µM.
As to `N[C@@H]1CC(F)(F)c2cc(F)c(-c3nnc(N4CCC(F)(F)CC4)o3)cc2N(Cc2ccc(-c3noc(C(F)(F)F)n3)cc2)C1=O` (single isomer, unassigned) [Example 15], the half-inhibitory concentration (IC50) came to 39.6 µM.
Turning to `COC(=O)N1CC2CC(c3nnc(-c4cc5c(cc4F)C(F)(F)C[C@@H](N)C(=O)N5Cc4ccc(Cl)cc4)o3)(C2)C1` (single isomer, unassigned) [Example 36], the IC50 stood at 55.2 µM.
Consider `COc1ccc(-c2ccc(CN3C(=O)[C@H](N)CC(F)(F)c4cc(F)c(-c5nnc(C(C)(C)C#N)o5)cc43)cc2)cc1` (single isomer, unassigned) [Example 9], for which the IC50 was 9.92 µM.
